One assay concerns HCT116 cells. Kind of assay: Inhibition of proliferation of the HCT116 human colon tumor line ([14C]-thymidine incorporation). Particulars: HCT-116, 48 hours incubation at 37° C., read-out: Inhibition of HCT116 proliferation IC 50. In kind it is cell-based. The method, then: Test for Determining the Inhibition of Proliferation of the HCT116 Human Colon Tumor Line
The proliferation of HCT116 cells is evaluated by mesuring the incorporation of [^14C]-thymidine in the following way. The HCT166 cells (from the ATCC) are cultured in a DMEM medium (Gibco) which contains 10% of fetal calf serum and antibiotics (1% penicillin, 1% streptomycin). To perform the proliferation test, the cells are seeded into 96-well cytostar microplates (Amersham) at the rate of 5000 cells per well. The [^14C]-thymidine (0.1 μCi/well) and the products to be evaluated are subsequently added. Variable concentrations of products up to 10 μM are used; the DMSO (solvent used to dissolve the products) should not exceed 0.5% in the medium. 48 hours after incubation at 37° C., the radioactivity incorporated into the cells is measured by counting the plate in a Tri-Lux counter (Wallac). The IC50 is defined as the concentration of product which reduces the radioactivity by 50% compared with an untreated control. A product with an IC50 of less than 10 μm is regarded as cytotoxic.
For orientation: Incorporation of labelled thymidine or its analogues reports DNA synthesis.

Assay [1] deals with T1, Tubulin purified from pig brains (Sus scrofa, UniProt P02550+P02554).
T1 construct: Tubulin is purified from pig brains according to published methods; from tissue; host or cells: pig brain
T1 sequence (P02550 whole entry): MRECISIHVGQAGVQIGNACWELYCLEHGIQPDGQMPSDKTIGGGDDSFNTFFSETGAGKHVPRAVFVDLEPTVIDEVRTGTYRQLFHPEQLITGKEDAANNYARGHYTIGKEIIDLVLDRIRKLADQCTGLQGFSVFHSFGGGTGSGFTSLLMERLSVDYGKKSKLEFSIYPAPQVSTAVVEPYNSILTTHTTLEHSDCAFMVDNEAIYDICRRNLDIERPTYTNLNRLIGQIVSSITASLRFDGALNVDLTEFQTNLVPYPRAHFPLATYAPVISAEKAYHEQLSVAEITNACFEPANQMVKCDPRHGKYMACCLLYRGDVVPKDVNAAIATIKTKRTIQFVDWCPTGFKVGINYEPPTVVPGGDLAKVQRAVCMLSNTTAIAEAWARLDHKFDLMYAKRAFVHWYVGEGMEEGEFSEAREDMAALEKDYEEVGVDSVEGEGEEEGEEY
T1 sequence (P02554 whole entry): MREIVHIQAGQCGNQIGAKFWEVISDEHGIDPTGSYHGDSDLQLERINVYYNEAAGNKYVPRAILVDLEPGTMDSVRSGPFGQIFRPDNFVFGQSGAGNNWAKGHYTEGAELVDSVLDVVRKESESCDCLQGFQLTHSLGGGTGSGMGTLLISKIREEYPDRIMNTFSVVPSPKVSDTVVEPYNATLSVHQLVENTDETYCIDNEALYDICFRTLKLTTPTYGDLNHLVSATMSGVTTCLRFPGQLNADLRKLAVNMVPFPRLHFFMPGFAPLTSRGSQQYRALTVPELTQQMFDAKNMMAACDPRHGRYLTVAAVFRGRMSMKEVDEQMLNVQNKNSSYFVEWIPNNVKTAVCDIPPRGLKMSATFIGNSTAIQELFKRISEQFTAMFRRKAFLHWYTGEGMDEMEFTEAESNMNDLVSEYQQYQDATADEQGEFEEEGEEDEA
Briefly: Assessment of the inhibition of tubulin polymerization (turbidimetry at 350 nm). Type of assay: biochemical. Particulars: concentration which inhibits the rate of polymerization by 50%; tubulin 1 mg/ml, 37° C.; read-out: Inhibition of tubulin polymerization IC 50. The method, then: Assessment of the Inhibition of Tubulin Polymerization
Tubulin is purified from pig brains according to published methods (Shelanski et al., 1973, Proc. Natl. Acad. Sci. USA, 70, 765-768. Weingarten et al., 1975, Proc. Natl. Acad. Sci. USA, 72, 1858-1862). Briefly, the brains are ground and centrifuged in an extraction buffer. The tubulin, present in the extract supernatant is subjected to two successive cycles of polymerization at 37° C. and depolymerization at 4° C., before being separated from the MAPs (Microtubule Associated Proteins) by chromatography on a phosphocellulose P11 column (Whatman). The tubulin thus isolated is more than 95% pure. It is stored in a buffer known as RB/2 30% glycerol, the composition of which is 50 mM MES-NaOH [2-(N-morpholino)ethanesulfonic acid], pH 6.8; 0.25 mM MgCl2; 0.5 mM EGTA; 30% (v/v) glycerol, 0.2 mM GTP (guanosine 5′-triphosphate).
The polymerization of the tubulin into microtubules is monitored by turbidimetry as follows: the tubulin is adjusted to a concentration of 10 μm (1 mg/ml) in the RB/2 30% glycerol buffer, to which are added 1 mM GTP and 6 mM MgCl2. The polymerization is initiated by increasing the temperature from 6° C. to 37° C. in a cuvette with a 1 cm optical pathlength, placed in a UVIKON 931 spectrophotometer (Kontron) equipped with a thermostatically-regulated cuvette holder. The increase in turbidity of the solution is monitored at 350 nm.
The products are dissolved at 10 mM in DMSO and added at variable concentrations (0.5 to 10 μm) to the tubulin solution before polymerization. The IC50 is defined as the concentration of the product which inhibits the rate of polymerization by 50%.

Structures are written as SMILES. Where a name gives a salt, the structure may show the parent alone.

`O=C(c1cncn1-c1ccccc1)N1CCN(c2cccc(Cl)c2)CC1` [Example 1, [4-(3-Chlorophenyl)piperazin-1-yl](1-phenyl-1H-imidazol-5-yl)methanone]: the IC50 in the assay on HCT116 cells was determined as 0.0296 µM; in assay [1], 2 µM.

For the compound `O=C(c1ncoc1-c1ccccc1)N1CCN(c2cccc(Cl)c2)CC1` [Example 2, [4-(3-Chlorophenyl)piperazin-1-yl](5-phenyl-1,3-oxazol-4-yl)methanone], the IC50 in the assay with HCT116 cells is 8.75 µM; in assay [1], 22 µM.

As for `O=C(c1[nH]cnc1-c1ccccc1)N1CCN(c2cccc(Cl)c2)CC1` [Example 3, [4-(3-Chlorophenyl)piperazin-1-yl](4-phenyl-1H-imidazol-5-yl)methanone], the IC50 with HCT116 cells turned out to be 0.0068 µM; in assay [1] it was 1 µM.

With `O=C(c1sccc1-c1ccccc1)N1CCN(c2cccc(Cl)c2)CC1` [Example 4, [4-(3-Chlorophenyl)piperazin-1-yl](3-phenylthiophen-2-yl)methanone], the results for the IC50 (in the assay with HCT116 cells; in assay [1]) were 0.0525 µM and 2 µM, respectively.

`COc1cccc(N2CCN(C(=O)c3ccoc3-c3ccc(Cl)cc3)CC2)c1` [Example 5, [4-(3-Methoxyphenyl)piperazin-1-yl][2-(4-chlorophenyl)furan-3-yl]methanone]: the IC50 in assay [1] was 11.5 µM.

As for `O=C(c1[nH]ccc1-c1ccccc1)N1CCN(c2cccc(Cl)c2)CC1` [Example 6, [4-(3-Chlorophenyl)piperazin-1-yl](3-phenyl-1H-pyrrol-2-yl)methanone], the results for the IC50 (in the assay on HCT116 cells; in assay [1]) were 0.034 µM and 0.69 µM, respectively.

Turning to `Cn1ccc(-c2ccccc2)c1C(=O)N1CCN(c2cccc(Cl)c2)CC1` [Example 7, [4-(3-Chlorophenyl)piperazin-1-yl](1-methyl-3-phenyl-1H-pyrrol-2-yl)-methanone], the IC50 in assay [1] was found to be 12.8 µM.

Regarding `COc1cc(OC)cc(N2CCN(C(=O)c3[nH]ccc3-c3ccccc3)CC2)c1` [Example 8, [4-(3,5-Dimethoxyphenyl)piperazin-1-yl](3-phenyl-1H-pyrrol-2-yl)methanone], the values for the IC50 (in the assay on HCT116 cells; in assay [1]) were 0.0029 µM and 1.2 µM, respectively.

Consider `O=C(c1[nH]cnc1-c1ccccc1)N1CCN(c2cccnc2)CC1` [Example 10, [4-(Pyridin-3-yl)piperazin-1-yl](4-phenyl-1H-imidazol-5-yl)methanone], for which the IC50 in the assay on HCT116 cells worked out at 0.0885 µM; in assay [1], 3.1 µM.

Take `COc1cc(OC)cc(N2CCN(C(=O)c3cncn3-c3ccccc3)CC2)c1` [Example 11, [4-(3,5-Dimethoxyphenyl)piperazin-1-yl](1-phenyl-1H-imidazol-5-yl)-methanone hydrochloride]: the results for the IC50 (in the assay with HCT116 cells; in assay [1]) were 0.0457 µM and 2.4 µM, respectively.

As to `CC(=O)Nc1cccc(N2CCN(C(=O)c3[nH]cnc3-c3ccccc3)CC2)c1` [Example 12, [4-(3-Acetylaminophenyl)piperazin-1-yl](4-phenyl-1H-imidazol-5-yl)methanone], the IC50 in the assay with HCT116 cells came to 1.19 µM; in assay [1] it was 3.5 µM.

Take `COc1cc(OC)cc(N2CCN(C(=O)c3cc[nH]c3-c3ccccc3)CC2)c1` [Example 21, [4-(3,5-Dimethoxyphenyl)piperazin-1-yl](2-phenyl-1H-pyrrol-3-yl)methanone]: in assay [1], the IC50 is 9.7 µM.

Regarding `CN(C)CCn1cc(C(=O)N2CCN(c3cccc(Cl)c3)CC2)c(-c2ccccc2)c1` [Example 31, [4-(3-Chlorophenyl)piperazin-1-yl][1-(2-dimethylaminoethyl)-4-phenyl-1H-pyrrol-3-yl]methanone hydrochloride], the IC50 in assay [1] is 25 µM.

For the compound `O=C(O)CCn1cc(C(=O)N2CCN(c3cccc(Cl)c3)CC2)c(-c2ccccc2)c1` [Example 32, 3-{3-[4-(3-Chlorophenyl)piperazin-1-ylcarbonyl]-4-phenylpyrrol-1-yl}-propionic acid], the IC50 in assay [1] worked out at 2.74 µM.

Consider `NC(=O)c1cccc(N2CCN(C(=O)c3[nH]c(S)nc3-c3ccccc3)CC2)c1` [Example 44, 3-[4-(2-Mercapto-4-phenyl-1H-imidazol-5-ylcarbonyl)piperazin-1-yl]benzamide], for which the IC50 in assay [1] amounted to 1.06 µM.

Consider `COc1cc(OC)cc(N2CCN(C(=O)c3cn(Cc4cscn4)cc3-c3ccccc3)CC2)c1` [Example 45, [4-(3,5-Dimethoxyphenyl)piperazin-1-yl][1-(thiazol-4-yl)methyl-4-phenyl-1H-pyrrol-3-yl]methanone], for which the IC50 in assay [1] was 4.85 µM.

Regarding `COC(=O)Cn1ccc(C(=O)N2CCN(c3cc(OC)cc(OC)c3)CC2)c1-c1ccccc1` [Example 49, Methyl 2-{3-[4-(3,5-dimethoxyphenyl)piperazin-1-yl]carbonyl-2-phenyl-1H-pyrrol-1-yl}acetate], the IC50 in assay [1] turned out to be 1.57 µM.

For `COc1cc(OC)cc(N2CCN(C(=O)c3ccn(Cc4cccnc4)c3-c3ccccc3)CC2)c1` [Example 64, [4-(3,5-Dimethoxyphenyl)piperazin-1-yl][1-(3-pyridyl)methyl-2-phenyl-1H-pyrrol-3-yl]methanone], the IC50 in assay [1] came to 13.4 µM.

In the case of `COC(=O)Cn1cc(C(=O)N2CCN(c3cccc(C(N)=O)c3)CC2)c(-c2ccccc2)c1` [Example 65], in assay [1], the IC50 came to 13.5 µM.

`CS(=O)(=O)c1nc(-c2ccccc2)c(C(=O)N2CCN(c3cccc(C(N)=O)c3)CC2)[nH]1` [Example 71, 3-[4-(2-Methylsulfonyl-4-phenyl-1H-imidazol-4-ylcarbonyl)piperazin-1-yl]benzamide]: in assay [1], the IC50 was found to be 13.9 µM.

For `NC(=O)c1cccc(N2CCN(C(=O)c3ccn(CCO)c3-c3ccccc3)CC2)c1` [Example 77, 3-[4-(1-Hydroxyethyl-2-phenyl-1H-pyrrol-3-ylcarbonyl)piperazin-1-yl]-benzamide], the IC50 in assay [1] came out at 3.61 µM.

Regarding `Cn1ccc(C(=O)N2CCN(c3cccc(CO)c3)CC2)c1-c1ccccc1` [Example 80, [4-(3-Hydroxymethylphenyl)piperazin-1-yl](1-methyl-2-phenyl-1H-pyrrol-3-yl)-methanone], the IC50 in assay [1] is 7.76 µM.

Consider `O=C(c1[nH]c(C(F)(F)F)nc1-c1ccccc1)N1CCN(c2cccc(CO)c2)CC1` [Example 83, [4-(3-Hydroxymethylphenyl)piperazin-1-yl](2-trifluoromethyl-4-phenyl-1H-imidazol-5-yl)methanone], for which the IC50 in assay [1] is 1.41 µM.

Take `N#Cc1cccc(N2CCN(C(=O)c3[nH]c(C(F)(F)F)nc3-c3ccccc3)CC2)c1` [Example 84, 3-[4-(2-Trifluoromethyl-4-phenyl-1H-imidazol-5-ylcarbonyl)piperazin-1-yl]-benzonitrile]: in assay [1], the IC50 is 0.574 µM.

Consider `O=C(c1cc[nH]c1-c1ccccc1)N1CCN(c2cccc(CO)c2)CC1` [Example 86, [4-(3-Hydroxymethylphenyl)piperazin-1-yl](2-phenyl-1H-pyrrol-3-yl)methanone], for which the IC50 in assay [1] worked out at 6.41 µM.

With `N#Cc1cccc(N2CCN(C(=O)c3cn(CCO)cc3-c3ccccc3)CC2)c1` [Example 87, 3-[4-(1-Hydroxyethyl-4-phenyl-1H-pyrrol-3-ylcarbonyl)piperazin-1-yl]-benzonitrile], in assay [1], the IC50 was 0.582 µM.

Turning to `O=C(c1ccn(CCO)c1-c1ccccc1)N1CCN(c2cccc(CO)c2)CC1` [Example 89], the IC50 in assay [1] was 2.99 µM.

For the compound `COCCNc1nc(-c2ccccc2)c(C(=O)N2CCN(c3cc(C)cc(C)c3)CC2)s1` [Example 90, [4-(3,5-Dimethylphenyl)piperazin-1-yl][2-(2-methoxyethyl)amino-4-phenylthiazol-5-yl]methanone], the IC50 in assay [1] was found to be 0.095 µM.

Regarding `COCCNc1nc(-c2ccccc2)c(C(=O)N2CCN(c3cc(OC)cc(OC)c3)CC2)s1` [Example 91, [4-(3,5-Dimethoxyphenyl)piperazin-1-yl][2-(2-methoxyethyl)amino-4-phenylthiazol-5-yl]methanone], the IC50 in assay [1] turned out to be 0.089 µM.

On to `N#Cc1cccc(N2CCN(C(=O)c3cn(Cc4cccnc4)cc3-c3ccccc3)CC2)c1` [Example 92, 3-{4-[1-(Pyridin-3-yl)methyl-4-phenyl-1H-pyrrol-3-ylcarbonyl]piperazin-1-yl}-benzonitrile], for which, in assay [1], the IC50 was found to be 0.167 µM.

The values above are taken from patent publication US20050014765A1, “Aryl-heteroaromatic products, compositions comprising them and use” (Aventis Pharma S.A., priority 2003, published 2005).
